The values below come from paper PMC4494766 (Monatshefte Fur Chemie, 2011).

Values after ≈ are worked out from the molar mass of the structure shown.

One assay has as its system M. tuberculosis wild-type strain sp. 192 fully sensitive. In words: Tuberculostatic activity, test-tube successive dilution in Youmans' medium. The assay is classed as cell-based. As to conditions: Mycobacterium tuberculosis.
For the compound `CSC(=NNC(=O)c1ccccc1Cl)SC` [Compound 2, Dimethyl 2-chlorobenzoylcarbonohydrazonodithioate], the MIC stood at 25 µg/mL (≈ 91 µM).

Regarding `CSC(=NNC(=O)c1ccc(Cl)cc1)SC` [Compound 3, Dimethyl 4-chlorobenzoylcarbonohydrazonodithioate], the MIC came out at 12.5 µg/mL (≈ 45.5 µM).

`CSC(=NNC(=O)c1ccc(Cl)cc1Cl)SC` [Compound 4, Dimethyl 2,4-dichlorobenzoylcarbonohydrazonodithioate] registered an MIC of 6.2 µg/mL (≈ 20 µM).

For the compound `CSC(=NNC(=O)c1ccc(Cl)c(Cl)c1)SC` [Compound 5, Dimethyl 3,4-dichlorobenzoylcarbonohydrazonodithioate], the MIC came out at 3.1 µg/mL (≈ 10 µM).

`CSC(=NNC(=O)c1ccccc1[N+](=O)[O-])SC` [Compound 6, Dimethyl 2-nitrobenzoylcarbonohydrazonodithioate] gave an MIC of 50 µg/mL (≈ 175 µM).

Consider `CSC(=NNC(=O)c1ccccc1O)SC` [Compound 8, Dimethyl 2-hydroxybenzoylcarbonohydrazonodithioate], for which the MIC worked out at 25 µg/mL (≈ 97.5 µM).

With `CSC(=NNC(=O)c1cccc(O)c1)SC` [Compound 9, Dimethyl 3-hydroxybenzoylcarbonohydrazonodithioate], the MIC was 6.2 µg/mL (≈ 24.2 µM).

Turning to `CSC(=NNC(=O)c1ccc(O)cc1)SC` [Compound 10, Dimethyl 4-hydroxybenzoylcarbonohydrazonodithioate], the MIC turned out to be 6.2 µg/mL (≈ 24.2 µM).

`COc1ccc(C(=O)NN=C(SC)SC)cc1` [Compound 11, Dimethyl 4-methoxybenzoylcarbonohydrazonodithioate] showed an MIC of 25 µg/mL (≈ 92.5 µM).

As to `COc1cc(C(=O)NN=C(SC)SC)cc(OC)c1OC` [Compound 12, Dimethyl 3,4,5-trimethoxybenzoylcarbonohydrazonodithioate], the MIC is 50 µg/mL (≈ 151 µM).

Regarding `COc1ccc(CC(=O)NN=C(SC)SC)cc1OC` [Compound 13, Dimethyl 2-(3,4-dimethoxyphenyl)acetylcarbonohydrazonodithioate], the MIC turned out to be 50 µg/mL (≈ 159 µM).

Another assay concerns Intracellularum. The assay is described as follows: Widened tuberculostatic tests. The assay is classed as cell-based, Mycobacterium.
Settings: not given
Compound `CSC(=NNC(=O)c1ccc(Cl)cc1)SC` [Compound 3, Dimethyl 4-chlorobenzoylcarbonohydrazonodithioate] registered an MIC of 50 μg cm^−3.

The compound `CSC(=NNC(=O)c1ccc(Cl)c(Cl)c1)SC` [Compound 5, Dimethyl 3,4-dichlorobenzoylcarbonohydrazonodithioate] yielded an MIC of 100 μg cm^−3.

Compound `CSC(=NNC(=O)c1cccc(O)c1)SC` [Compound 9, Dimethyl 3-hydroxybenzoylcarbonohydrazonodithioate] gave an MIC of 25 μg cm^−3.

Turning to `CSC(=NNC(=O)c1ccc(O)cc1)SC` [Compound 10, Dimethyl 4-hydroxybenzoylcarbonohydrazonodithioate], the MIC is 100 μg cm^−3.

The test system of a further assay is M. tuberculosis H37Rv strain. The assay is described as follows: Tuberculostatic activity, test-tube successive dilution in Youmans' medium. As to conditions: Mycobacterium tuberculosis. In kind it is cell-based.
The compound `CSC(=NNC(=O)c1ccccc1Cl)SC` [Compound 2, Dimethyl 2-chlorobenzoylcarbonohydrazonodithioate] came in with an MIC of 25 µg/mL (≈ 91 µM).

For `CSC(=NNC(=O)c1ccc(Cl)cc1)SC` [Compound 3, Dimethyl 4-chlorobenzoylcarbonohydrazonodithioate], the MIC stood at 6.2 µg/mL (≈ 22.6 µM).

`CSC(=NNC(=O)c1ccc(Cl)cc1Cl)SC` [Compound 4, Dimethyl 2,4-dichlorobenzoylcarbonohydrazonodithioate] came in with an MIC of 6.2 µg/mL (≈ 20 µM).

As for `CSC(=NNC(=O)c1ccc(Cl)c(Cl)c1)SC` [Compound 5, Dimethyl 3,4-dichlorobenzoylcarbonohydrazonodithioate], the MIC turned out to be 6.2 µg/mL (≈ 20 µM).

As to `CSC(=NNC(=O)c1ccccc1[N+](=O)[O-])SC` [Compound 6, Dimethyl 2-nitrobenzoylcarbonohydrazonodithioate], the MIC was determined as 25 µg/mL (≈ 87.6 µM).

`CSC(=NNC(=O)c1cccc(O)c1)SC` [Compound 9, Dimethyl 3-hydroxybenzoylcarbonohydrazonodithioate] registered an MIC of 6.2 µg/mL (≈ 24.2 µM).

In turn, `CSC(=NNC(=O)c1ccc(O)cc1)SC` [Compound 10, Dimethyl 4-hydroxybenzoylcarbonohydrazonodithioate] had an MIC of 3.1 µg/mL (≈ 12.1 µM).

In turn, `COc1ccc(C(=O)NN=C(SC)SC)cc1` [Compound 11, Dimethyl 4-methoxybenzoylcarbonohydrazonodithioate] registered an MIC of 25 µg/mL (≈ 92.5 µM).

`COc1cc(C(=O)NN=C(SC)SC)cc(OC)c1OC` [Compound 12, Dimethyl 3,4,5-trimethoxybenzoylcarbonohydrazonodithioate] showed an MIC of 25 µg/mL (≈ 75.7 µM).

For the compound `COc1ccc(CC(=O)NN=C(SC)SC)cc1OC` [Compound 13, Dimethyl 2-(3,4-dimethoxyphenyl)acetylcarbonohydrazonodithioate], the MIC turned out to be 25 µg/mL (≈ 79.5 µM).

The test system of a further assay is An5. In words: Widened tuberculostatic tests.
Settings: not given
In kind it is cell-based, Mycobacterium.
Turning to `CSC(=NNC(=O)c1ccc(Cl)cc1)SC` [Compound 3, Dimethyl 4-chlorobenzoylcarbonohydrazonodithioate], the MIC was determined as 12.5 μg cm^−3.

Regarding `CSC(=NNC(=O)c1ccc(Cl)cc1Cl)SC` [Compound 4, Dimethyl 2,4-dichlorobenzoylcarbonohydrazonodithioate], the MIC is recorded as 6.2 μg cm^−3.

Take `CSC(=NNC(=O)c1ccc(Cl)c(Cl)c1)SC` [Compound 5, Dimethyl 3,4-dichlorobenzoylcarbonohydrazonodithioate]: the MIC turned out to be 12.5 μg cm^−3.

The compound `CSC(=NNC(=O)c1cccc(O)c1)SC` [Compound 9, Dimethyl 3-hydroxybenzoylcarbonohydrazonodithioate] displayed an MIC of 6.2 μg cm^−3.

`CSC(=NNC(=O)c1ccc(O)cc1)SC` [Compound 10, Dimethyl 4-hydroxybenzoylcarbonohydrazonodithioate]: the MIC came to 6.2 μg cm^−3.

In a further assay the test system is Phlei. The assay is described as follows: Widened tuberculostatic tests. The assay is classed as cell-based, Mycobacterium.
Settings: not given
The compound `CSC(=NNC(=O)c1ccc(Cl)cc1)SC` [Compound 3, Dimethyl 4-chlorobenzoylcarbonohydrazonodithioate] registered an MIC of 100 μg cm^−3.

`CSC(=NNC(=O)c1ccc(Cl)c(Cl)c1)SC` [Compound 5, Dimethyl 3,4-dichlorobenzoylcarbonohydrazonodithioate] returned an MIC of 100 μg cm^−3.

As for `CSC(=NNC(=O)c1ccc(O)cc1)SC` [Compound 10, Dimethyl 4-hydroxybenzoylcarbonohydrazonodithioate], the MIC was found to be 100 μg cm^−3.

The subject of a further assay is Scrofulaceum. In words: Widened tuberculostatic tests. The assay is classed as cell-based, Mycobacterium.
Settings: not given
In turn, `CSC(=NNC(=O)c1ccc(Cl)cc1)SC` [Compound 3, Dimethyl 4-chlorobenzoylcarbonohydrazonodithioate] yielded an MIC of 100 μg cm^−3.

In turn, `CSC(=NNC(=O)c1ccc(Cl)cc1Cl)SC` [Compound 4, Dimethyl 2,4-dichlorobenzoylcarbonohydrazonodithioate] showed an MIC of 25 μg cm^−3.

Consider `CSC(=NNC(=O)c1ccc(Cl)c(Cl)c1)SC` [Compound 5, Dimethyl 3,4-dichlorobenzoylcarbonohydrazonodithioate], for which the MIC was 25 μg cm^−3.

Consider `CSC(=NNC(=O)c1cccc(O)c1)SC` [Compound 9, Dimethyl 3-hydroxybenzoylcarbonohydrazonodithioate], for which the MIC came to 25 μg cm^−3.

Compound `CSC(=NNC(=O)c1ccc(O)cc1)SC` [Compound 10, Dimethyl 4-hydroxybenzoylcarbonohydrazonodithioate] showed an MIC of 50 μg cm^−3.

A further assay relates to Fortuitum. In words: Widened tuberculostatic tests. The assay is classed as cell-based, Mycobacterium.
Settings: not given
`CSC(=NNC(=O)c1ccc(Cl)cc1)SC` [Compound 3, Dimethyl 4-chlorobenzoylcarbonohydrazonodithioate] had an MIC of 100 μg cm^−3.

The compound `CSC(=NNC(=O)c1ccc(Cl)c(Cl)c1)SC` [Compound 5, Dimethyl 3,4-dichlorobenzoylcarbonohydrazonodithioate] registered an MIC of 100 μg cm^−3.

With `CSC(=NNC(=O)c1cccc(O)c1)SC` [Compound 9, Dimethyl 3-hydroxybenzoylcarbonohydrazonodithioate], the MIC is given as 25 μg cm^−3.

For the compound `CSC(=NNC(=O)c1ccc(O)cc1)SC` [Compound 10, Dimethyl 4-hydroxybenzoylcarbonohydrazonodithioate], the MIC was found to be 100 μg cm^−3.

Another assay concerns human non-small lung cancer cell line A549. In words: MTT viability assay. In kind it is cell-based. As to conditions: 120 h. In general terms: Tetrazolium assays rely on reduction of a dye to a coloured formazan, in cell work by metabolically active cells.
`N.N.[Cl][Pt][Cl]` [Cis-Pt, Cisplatin] had an IC50 of 0.63 ± 0.018 µM.

For the compound `COc1cccc2c1C(=O)c1c(O)c3c(c(O)c1C2=O)C[C@@](O)(C(=O)CO)C[C@@H]3O[C@H]1C[C@H](N)[C@H](O)[C@H](C)O1` [Dox, doxotubicin], the IC50 turned out to be 0.008 ± 0.0011 µM.

In another assay the test system is Kirchberg. The assay is described as follows: Widened tuberculostatic tests.
Settings: not given
The assay is classed as cell-based, Mycobacterium.
`CSC(=NNC(=O)c1ccc(Cl)cc1)SC` [Compound 3, Dimethyl 4-chlorobenzoylcarbonohydrazonodithioate] gave an MIC of 25 μg cm^−3.

`CSC(=NNC(=O)c1ccc(Cl)c(Cl)c1)SC` [Compound 5, Dimethyl 3,4-dichlorobenzoylcarbonohydrazonodithioate] gave an MIC of 12.5 μg cm^−3.

The compound `CSC(=NNC(=O)c1ccc(O)cc1)SC` [Compound 10, Dimethyl 4-hydroxybenzoylcarbonohydrazonodithioate] came in with an MIC of 50 μg cm^−3.

In another assay the test system is A549 and HCT116 cell lines. In words: MTT cytotoxicity, summary statements without cell line. The assay is classed as cell-based. As to conditions: Homo sapiens, read-out: IC 50 (ca., cell line not stated).
Regarding `CSC(=NNC(=O)c1ccc(Cl)c(Cl)c1)SC` [Compound 5, Dimethyl 3,4-dichlorobenzoylcarbonohydrazonodithioate], the IC50 is around 30 µM.

In the case of `CSC(=NNC(=O)c1ccc(O)cc1)SC` [Compound 10, Dimethyl 4-hydroxybenzoylcarbonohydrazonodithioate], the IC50 was around 100 µM.

A further assay relates to Wells. The assay is described as follows: Widened tuberculostatic tests.
Settings: not given
In kind it is cell-based, Mycobacterium.
In the case of `CSC(=NNC(=O)c1ccc(Cl)cc1)SC` [Compound 3, Dimethyl 4-chlorobenzoylcarbonohydrazonodithioate], the MIC is given as 12.5 μg cm^−3.

Regarding `CSC(=NNC(=O)c1ccc(Cl)cc1Cl)SC` [Compound 4, Dimethyl 2,4-dichlorobenzoylcarbonohydrazonodithioate], the MIC came to 12.5 μg cm^−3.

Turning to `CSC(=NNC(=O)c1ccc(Cl)c(Cl)c1)SC` [Compound 5, Dimethyl 3,4-dichlorobenzoylcarbonohydrazonodithioate], the MIC is reported as 6.2 μg cm^−3.

Compound `CSC(=NNC(=O)c1cccc(O)c1)SC` [Compound 9, Dimethyl 3-hydroxybenzoylcarbonohydrazonodithioate] came in with an MIC of 6.2 μg cm^−3.

Turning to `CSC(=NNC(=O)c1ccc(O)cc1)SC` [Compound 10, Dimethyl 4-hydroxybenzoylcarbonohydrazonodithioate], the MIC amounted to 12.5 μg cm^−3.

A further assay relates to H37Rv. In words: Widened tuberculostatic tests. The assay is classed as cell-based, Mycobacterium.
Settings: not given
In turn, `CSC(=NNC(=O)c1ccc(Cl)cc1)SC` [Compound 3, Dimethyl 4-chlorobenzoylcarbonohydrazonodithioate] returned an MIC of 12.5 μg cm^−3.

`CSC(=NNC(=O)c1ccc(Cl)cc1Cl)SC` [Compound 4, Dimethyl 2,4-dichlorobenzoylcarbonohydrazonodithioate] yielded an MIC of 6.2 μg cm^−3.

`CSC(=NNC(=O)c1ccc(Cl)c(Cl)c1)SC` [Compound 5, Dimethyl 3,4-dichlorobenzoylcarbonohydrazonodithioate] showed an MIC of 6.2 μg cm^−3.

As for `CSC(=NNC(=O)c1cccc(O)c1)SC` [Compound 9, Dimethyl 3-hydroxybenzoylcarbonohydrazonodithioate], the MIC worked out at 6.2 μg cm^−3.

In the case of `CSC(=NNC(=O)c1ccc(O)cc1)SC` [Compound 10, Dimethyl 4-hydroxybenzoylcarbonohydrazonodithioate], the MIC worked out at 6.2 μg cm^−3.

The next assay concerns Kansasii. In words: Widened tuberculostatic tests.
Settings: not given
The assay is classed as cell-based, Mycobacterium.
For the compound `CSC(=NNC(=O)c1ccc(Cl)cc1)SC` [Compound 3, Dimethyl 4-chlorobenzoylcarbonohydrazonodithioate], the MIC is given as 25 μg cm^−3.

Compound `CSC(=NNC(=O)c1ccc(Cl)cc1Cl)SC` [Compound 4, Dimethyl 2,4-dichlorobenzoylcarbonohydrazonodithioate] registered an MIC of 25 μg cm^−3.

`CSC(=NNC(=O)c1ccc(Cl)c(Cl)c1)SC` [Compound 5, Dimethyl 3,4-dichlorobenzoylcarbonohydrazonodithioate] had an MIC of 6.2 μg cm^−3.

`CSC(=NNC(=O)c1ccc(O)cc1)SC` [Compound 10, Dimethyl 4-hydroxybenzoylcarbonohydrazonodithioate] registered an MIC of 25 μg cm^−3.

Another assay relates to Smegmatis. The assay is described as follows: Widened tuberculostatic tests. In kind it is cell-based, Mycobacterium.
Settings: not given
The compound `CSC(=NNC(=O)c1ccc(Cl)cc1)SC` [Compound 3, Dimethyl 4-chlorobenzoylcarbonohydrazonodithioate] came in with an MIC of 100 μg cm^−3.

As to `CSC(=NNC(=O)c1ccc(Cl)c(Cl)c1)SC` [Compound 5, Dimethyl 3,4-dichlorobenzoylcarbonohydrazonodithioate], the MIC stood at 100 μg cm^−3.

In the case of `CSC(=NNC(=O)c1ccc(O)cc1)SC` [Compound 10, Dimethyl 4-hydroxybenzoylcarbonohydrazonodithioate], the MIC came to 100 μg cm^−3.
